Measurements reported in US20020137929A1, “1 - (3-heterocyclylphenyl) isothiourea, -isourea, -guanidine and -amidine herbicidal agents” (Intellectual Property Department, BASF Aktiengesellschaft, priority 1998, published 2002).

Experiments:
CASOB (Sicklepod) = assay: Postemergence herbicidal evaluation; format: in vivo, Cassia obtusifolia; settings: postemergence
How it was run: (§1)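 ~2-wk seedlings; postemergence spray, 40 psi; vehicle 1:1 acetone:water + 0.5% Tween 20; rate ≈0.0156–0.500 kg/ha; greenhouse hold; scored 4–5 wk after treatment, 0–9 scale vs control; repeat tests averaged.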

[1] = tested on: CHEAL (Lambsquarters, Common); assay: Postemergence herbicidal evaluation; format: in vivo, Chenopodium album; settings: postemergence
How it was run: as §1

GALAP (Galium) = assay: Postemergence herbicidal evaluation; format: in vivo, Galium aparine; settings: postemergence
How it was run: as §1

ORYSAT (Rice, Tebonnet) [2] = assay: Postemergence herbicidal evaluation; format: in vivo, Oryza sativa, (L.) Tebonnet; settings: postemergence
How it was run: as §1

ZEAMX (Corn, Field) = assay: Postemergence herbicidal evaluation; format: in vivo, Zea mays; settings: postemergence
How it was run: as §1

AMBEL (Ragweed, Common) = assay: Preemergence herbicidal evaluation; format: in vivo, Ambrosia artemisifolia; settings: rated 4-5 weeks after treatment, rating scale 0-9
How it was run: (§2)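 Steps: mix seeds into potting soil; plant atop ~1 inch soil; spray compound in aqueous acetone (~0.0156-0.500 kg/ha equivalent); maintain in greenhouse with watering; rate visually 0-9 versus control at 4-5 weeks.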

SETVI (Foxtail, Green) = assay: Preemergence herbicidal evaluation; format: in vivo, Setaria viridis; settings: rated 4-5 weeks after treatment, rating scale 0-9
How it was run: as §2

[3] = tested on: GLXMAW (Soybean, Williams); assay: Preemergence herbicidal evaluation; format: in vivo, Glycine max, (L.) Merr. cv Williams; settings: rated 4-5 weeks after treatment, rating scale 0-9
How it was run: as §2

ORYSAT (Rice, Tebonnet) [4] = assay: Preemergence herbicidal evaluation; format: in vivo, Oryza sativa, (L.) Tebonnet; settings: rated 4-5 weeks after treatment, rating scale 0-9
How it was run: as §2

CYPSE (Flatsedge) = assay: Preemergence weed control under flooded paddy conditions; format: in vivo, Cyperus serotinus; settings: rated 3-4 weeks after treatment
How it was run: (§3)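 Flooded-pot preemergence screen with silt loam and seeds in the upper 0.5 cm. Dose about 0.0313 to 0.500 kg/ha, delivered into flood water; visual 0-9 score after 3 to 4 weeks.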

MOOVA (Monochoria) = assay: as above; format: in vivo, Monochoria vaginalis; settings: rated 3-4 weeks after treatment
How it was run: as §3

Cn1c(C(F)(F)F)cc(=O)n(-c2cc(N=C3SCC(=O)N3Cc3ccncc3)c(Cl)cc2F)c1=O [Compound 133, 3-{4-Chloro-2-fluoro-5-{[4-oxo-3-(4-pyridylmethyl)-2-thiazolidinylidene]amino}phenyl}-1-methyl-6-(trifluoromethyl)-2,4(1H,3H)-pyrimidinedione]
9.0: Herbicidal rating CHEAL ([1]; rate 0.0156 kg/ha) | Herbicidal rating CHEAL ([1]; rate 0.0625 kg/ha)
4.0: Herbicidal rating ZEAMX (ZEAMX (Corn, Field); rate 0.0156 kg/ha) | Herbicidal rating ZEAMX (ZEAMX (Corn, Field); rate 0.0313 kg/ha) | Herbicidal rating ZEAMX (ZEAMX (Corn, Field); rate 0.0625 kg/ha) | herbicidal effect rating, MOOVA (MOOVA (Monochoria); 0.0625 kg/ha) | herbicidal effect rating, MOOVA (MOOVA (Monochoria); 0.1250 kg/ha)
2.0: Herbicidal rating GALAP (GALAP (Galium); rate 0.0313 kg/ha)
3.0: Herbicidal rating CASOB (CASOB (Sicklepod); rate 0.0625 kg/ha) | Herbicidal rating GALAP (GALAP (Galium); rate 0.0625 kg/ha) | Herbicidal rating ORYSAT (ORYSAT (Rice, Tebonnet) [2]; rate 0.0625 kg/ha) | herbicidal effect rating, MOOVA (MOOVA (Monochoria); 0.0313 kg/ha)
1.0: Herbicidal rating CASOB (CASOB (Sicklepod); rate 0.0313 kg/ha) | Preemergence herbicidal rating AMBEL (AMBEL (Ragweed, Common); rate 0.2500 kg/ha) | herbicidal effect rating, CYPSE (CYPSE (Flatsedge); 0.2500 kg/ha)
6.0: Herbicidal rating CHEAL ([1]; rate 0.0313 kg/ha) | herbicidal effect rating, MOOVA (MOOVA (Monochoria); 0.2500 kg/ha)
0.0: Herbicidal rating CASOB (CASOB (Sicklepod); rate 0.0156 kg/ha) | Herbicidal rating GALAP (GALAP (Galium); rate 0.0156 kg/ha) | Preemergence herbicidal rating AMBEL (AMBEL (Ragweed, Common); rate 0.0313 kg/ha) | Preemergence herbicidal rating AMBEL (AMBEL (Ragweed, Common); rate 0.0625 kg/ha) | Preemergence herbicidal rating AMBEL (AMBEL (Ragweed, Common); rate 0.1250 kg/ha) | Preemergence herbicidal rating SETVI (SETVI (Foxtail, Green); rate 0.0313 kg/ha) | Preemergence herbicidal rating SETVI (SETVI (Foxtail, Green); rate 0.0625 kg/ha) | Preemergence herbicidal rating SETVI (SETVI (Foxtail, Green); rate 0.1250 kg/ha) | Preemergence herbicidal rating SETVI (SETVI (Foxtail, Green); rate 0.2500 kg/ha) | Preemergence herbicidal rating GLXMAW ([3]; rate 0.0313 kg/ha) | Preemergence herbicidal rating GLXMAW ([3]; rate 0.0625 kg/ha) | Preemergence herbicidal rating GLXMAW ([3]; rate 0.1250 kg/ha) | Preemergence herbicidal rating GLXMAW ([3]; rate 0.2500 kg/ha) | Preemergence herbicidal rating ORYSAT (ORYSAT (Rice, Tebonnet) [4]; rate 0.0313 kg/ha) | Preemergence herbicidal rating ORYSAT (ORYSAT (Rice, Tebonnet) [4]; rate 0.0625 kg/ha) | Preemergence herbicidal rating ORYSAT (ORYSAT (Rice, Tebonnet) [4]; rate 0.1250 kg/ha) | Preemergence herbicidal rating ORYSAT (ORYSAT (Rice, Tebonnet) [4]; rate 0.2500 kg/ha) | herbicidal effect rating, CYPSE (CYPSE (Flatsedge); 0.0313 kg/ha) | herbicidal effect rating, CYPSE (CYPSE (Flatsedge); 0.0625 kg/ha) | herbicidal effect rating, CYPSE (CYPSE (Flatsedge); 0.1250 kg/ha)
2.5: Herbicidal rating ORYSAT (ORYSAT (Rice, Tebonnet) [2]; rate 0.0156 kg/ha) | Herbicidal rating ORYSAT (ORYSAT (Rice, Tebonnet) [2]; rate 0.0313 kg/ha)

Cn1c(C(F)(F)F)cc(=O)n(-c2cc(N=C3SCC(=O)N3Cc3cccc(Cl)c3)c(Cl)cc2F)c1=O [Compound 136, 3-{4-Chloro-5-{[3-(m-chlorobenzyl)-4-oxo-2-thiazolidinylidene]amino}-2-fluorophenyl}-1-methyl-6-(trifluoromethyl)-2,4(1H,3H)-pyrimidinedione]
4.0: Herbicidal rating CASOB (CASOB (Sicklepod); rate 0.0313 kg/ha) | Herbicidal rating ZEAMX (ZEAMX (Corn, Field); rate 0.0156 kg/ha) | Herbicidal rating ZEAMX (ZEAMX (Corn, Field); rate 0.0313 kg/ha) | Herbicidal rating ZEAMX (ZEAMX (Corn, Field); rate 0.0625 kg/ha) | Preemergence herbicidal rating SETVI (SETVI (Foxtail, Green); rate 0.1250 kg/ha) | herbicidal effect rating, MOOVA (MOOVA (Monochoria); 0.0625 kg/ha)
5.0: Preemergence herbicidal rating AMBEL (AMBEL (Ragweed, Common); rate 0.2500 kg/ha)
1.0: Herbicidal rating CASOB (CASOB (Sicklepod); rate 0.0156 kg/ha) | Herbicidal rating GALAP (GALAP (Galium); rate 0.0156 kg/ha) | Preemergence herbicidal rating AMBEL (AMBEL (Ragweed, Common); rate 0.0625 kg/ha) | Preemergence herbicidal rating GLXMAW ([3]; rate 0.1250 kg/ha) | Preemergence herbicidal rating ORYSAT (ORYSAT (Rice, Tebonnet) [4]; rate 0.1250 kg/ha) | Preemergence herbicidal rating ORYSAT (ORYSAT (Rice, Tebonnet) [4]; rate 0.2500 kg/ha)
9.0: Herbicidal rating CHEAL ([1]; rate 0.0156 kg/ha) | Herbicidal rating CHEAL ([1]; rate 0.0313 kg/ha) | Herbicidal rating CHEAL ([1]; rate 0.0625 kg/ha) | herbicidal effect rating, MOOVA (MOOVA (Monochoria); 0.1250 kg/ha) | herbicidal effect rating, MOOVA (MOOVA (Monochoria); 0.2500 kg/ha)
3.0: Herbicidal rating GALAP (GALAP (Galium); rate 0.0625 kg/ha) | Herbicidal rating ORYSAT (ORYSAT (Rice, Tebonnet) [2]; rate 0.0313 kg/ha) | herbicidal effect rating, MOOVA (MOOVA (Monochoria); 0.0313 kg/ha)
2.0: Herbicidal rating GALAP (GALAP (Galium); rate 0.0313 kg/ha) | Preemergence herbicidal rating AMBEL (AMBEL (Ragweed, Common); rate 0.1250 kg/ha) | Preemergence herbicidal rating SETVI (SETVI (Foxtail, Green); rate 0.0625 kg/ha) | Preemergence herbicidal rating GLXMAW ([3]; rate 0.2500 kg/ha)
0.0: Preemergence herbicidal rating AMBEL (AMBEL (Ragweed, Common); rate 0.0156 kg/ha) | Preemergence herbicidal rating AMBEL (AMBEL (Ragweed, Common); rate 0.0313 kg/ha) | Preemergence herbicidal rating SETVI (SETVI (Foxtail, Green); rate 0.0156 kg/ha) | Preemergence herbicidal rating SETVI (SETVI (Foxtail, Green); rate 0.0313 kg/ha) | Preemergence herbicidal rating GLXMAW ([3]; rate 0.0156 kg/ha) | Preemergence herbicidal rating GLXMAW ([3]; rate 0.0313 kg/ha) | Preemergence herbicidal rating GLXMAW ([3]; rate 0.0625 kg/ha) | Preemergence herbicidal rating ORYSAT (ORYSAT (Rice, Tebonnet) [4]; rate 0.0156 kg/ha) | Preemergence herbicidal rating ORYSAT (ORYSAT (Rice, Tebonnet) [4]; rate 0.0313 kg/ha) | Preemergence herbicidal rating ORYSAT (ORYSAT (Rice, Tebonnet) [4]; rate 0.0625 kg/ha) | herbicidal effect rating, CYPSE (CYPSE (Flatsedge); 0.0313 kg/ha) | herbicidal effect rating, CYPSE (CYPSE (Flatsedge); 0.0625 kg/ha) | herbicidal effect rating, CYPSE (CYPSE (Flatsedge); 0.1250 kg/ha) | herbicidal effect rating, CYPSE (CYPSE (Flatsedge); 0.2500 kg/ha)
7.0: Herbicidal rating CASOB (CASOB (Sicklepod); rate 0.0625 kg/ha) | Preemergence herbicidal rating SETVI (SETVI (Foxtail, Green); rate 0.2500 kg/ha)
2.5: Herbicidal rating ORYSAT (ORYSAT (Rice, Tebonnet) [2]; rate 0.0156 kg/ha) | Herbicidal rating ORYSAT (ORYSAT (Rice, Tebonnet) [2]; rate 0.0625 kg/ha)
